Like-named read-outs stand apart in the source and are kept apart here.
Key:
Assay in all cases: Post-emergence efficacy, Method A
Type in all cases: in vivo
[1] = tested on: Ipomoea hederacea (IPOHE); conditions: evaluated after 13 days; for pest or weed control at 500 g/ha: Ipomoea hederacea, post-emergence, 312 h
Description: (§1) Seeds of a variety of test species were sown in standard soil in pots. After cultivation for 14 days (post-emergence) under controlled conditions in a glasshouse (at 24/16° C., day/night; 14 hours light; 65% humidity), the plants were sprayed with an aqueous spray solution derived from the dissolution of the technical active ingredient formula (I) in a small amount of acetone and a special solvent and emulsifier mixture referred to as IF50 (11.12% Emulsogen EL360 TM+44.44% N-methylpyrrolidone+44.44% Dowanol DPM glycol ether), to create a 50 g/I solution which was then diluted to required concentration using 0.25% or 1% Empicol ESC70 (Sodium lauryl ether sulphate)+1% ammonium sulphate as diluent. The test plants were then grown in a glasshouse under controlled conditions (at 24/16° C., day/night; 14 hours light; 65% humidity) and watered twice daily. After 13 days the test was evaluated (100=total damage to plant; 0=no damage to plant).
(§2) Ipomoea hederacea (IPOHE), Euphorbia heterophylla (EPHHL), Chenopodium album (CHEAL), Amaranthus palmeri (AMAPA), Lolium perenne (LOLPE), Digitaria sanguinalis (DIGSA), Eleusine indica (ELEIN), Echinochloa crus-galli (ECHCG), Setaria faberi (SETFA)

[2] = tested on: Euphorbia heterophylla (EPHHL); conditions: evaluated after 13 days; for pest or weed control at 500 g/ha: Euphorbia heterophylla, post-emergence, 312 h
Description: as §1, §2

Eleusine indica (ELEIN) = conditions: evaluated after 13 days; for pest or weed control at 500 g/ha: Eleusine indica, post-emergence, 312 h
Description: as §1, §2

[3] = tested on: Echinochloa crus-galli (ECHCG); conditions: evaluated after 13 days; for pest or weed control at 500 g/ha: Echinochloa crus-galli, post-emergence, 312 h
Description: as §1, §2

[4] = tested on: Digitaria sanguinalis (DIGSA); conditions: evaluated after 13 days; for pest or weed control at 500 g/ha: Digitaria sanguinalis, post-emergence, 312 h
Description: as §1, §2

[5] = tested on: Chenopodium album (CHEAL); conditions: evaluated after 13 days; for pest or weed control at 500 g/ha: Chenopodium album, post-emergence, 312 h
Description: as §1, §2

Lolium perenne (LOLPE) = conditions: evaluated after 13 days; for pest or weed control at 500 g/ha: Lolium perenne, post-emergence, 312 h
Description: as §1, §2

Setaria faberi (SETFA) = conditions: evaluated after 13 days; for pest or weed control at 500 g/ha: Setaria faberi, post-emergence, 312 h
Description: as §1, §2

[6] = tested on: Amaranthus palmeri (AMAPA); conditions: evaluated after 13 days; for pest or weed control at 500 g/ha: Amaranthus palmeri, post-emergence, 312 h
Description: as §1, §2

[7] = Application rate 500 g/Ha, 100=total damage to plant, 0=no damage to plant, read-out: Control of weed species after post-emergence application, IPOHE
[8] = Application rate 500 g/Ha, 100=total damage to plant, 0=no damage to plant, read-out: Control of weed species after post-emergence application, EPHHL
[9] = Application rate 500 g/Ha, 100=total damage to plant, 0=no damage to plant, read-out: Control of weed species after post-emergence application, ELEIN
[10] = Application rate 500 g/Ha, 100=total damage to plant, 0=no damage to plant, read-out: Control of weed species after post-emergence application, ECHCG
[11] = Application rate 500 g/Ha, 100=total damage to plant, 0=no damage to plant, read-out: Control of weed species after post-emergence application, DIGSA
[12] = Application rate 500 g/Ha, 100=total damage to plant, 0=no damage to plant, read-out: Control of weed species after post-emergence application, CHEAL
[13] = Application rate 500 g/Ha, 100=total damage to plant, 0=no damage to plant, read-out: Control of weed species after post-emergence application, LOLPE
[14] = Application rate 500 g/Ha, 100=total damage to plant, 0=no damage to plant, read-out: Control of weed species after post-emergence application, SETFA
[15] = Application rate 500 g/Ha, 100=total damage to plant, 0=no damage to plant, read-out: Control of weed species after post-emergence application, AMAPA
[16] = Application rate 500 g/Ha, 100=total damage to plant, 0=no damage to plant

SMILES	pest or weed control at 500 g/ha [1, 7] [%]	pest or weed control at 500 g/ha [2, 8] [%]	pest or weed control at 500 g/ha (Eleusine indica (ELEIN); [9]) [%]	pest or weed control at 500 g/ha [3, 10] [%]	pest or weed control at 500 g/ha [4, 11] [%]	pest or weed control at 500 g/ha [5, 12] [%]	pest or weed control at 500 g/ha (Lolium perenne (LOLPE); [13]) [%]	pest or weed control at 500 g/ha (Setaria faberi (SETFA); [14]) [%]	pest or weed control at 500 g/ha [6, 15] [%]	also measured
O=S(=O)([O-])CC[n+]1ccc(-c2cncc(C(F)(F)F)n2)cn1 [Compound A110]	80	80	90	50	40	100	50	50	100	–
Cc1n[n+](CCS(=O)(=O)[O-])ccc1-c1ncccn1 [Compound A88, 2-(3-methyl-4-pyrimidin-2-yl-pyridazin-1-ium-1-yl)ethanesulfonate]	30	60	90	60	90	70	60	70	100	–
CC(C)(C[n+]1ccc(-c2ccncn2)cn1)C(=O)O [Compound A167]	–	–	–	–	–	–	–	–	–	pest or weed control at 500 g/ha ([1]; Application Rate 500 g/Ha, Method A, read-out: Control of weed species after post-emergence application, IPOHE (100=total damage to plant; 0=no damage to plant)): 100%; pest or weed control at 500 g/ha ([2]; Application Rate 500 g/Ha, Method A, read-out: Control of weed species after post-emergence application, EPHHL (100=total damage to plant; 0=no damage to plant)): 90%; pest or weed control at 500 g/ha (Eleusine indica (ELEIN); Application Rate 500 g/Ha, Method A, read-out: Control of weed species after post-emergence application, ELEIN (100=total damage to plant; 0=no damage to plant)): 80%; pest or weed control at 500 g/ha ([3]; Application Rate 500 g/Ha, Method A, read-out: Control of weed species after post-emergence application, ECHCG (100=total damage to plant; 0=no damage to plant)): 60%; pest or weed control at 500 g/ha ([4]; Application Rate 500 g/Ha, Method A, read-out: Control of weed species after post-emergence application, DIGSA (100=total damage to plant; 0=no damage to plant)): 50%; pest or weed control at 500 g/ha ([5]; Application Rate 500 g/Ha, Method A, read-out: Control of weed species after post-emergence application, CHEAL (100=total damage to plant; 0=no damage to plant)): 70%; pest or weed control at 500 g/ha (Lolium perenne (LOLPE); Application Rate 500 g/Ha, Method A, read-out: Control of weed species after post-emergence application, LOLPE (100=total damage to plant; 0=no damage to plant)): 40%; pest or weed control at 500 g/ha (Setaria faberi (SETFA); Application Rate 500 g/Ha, Method A, read-out: Control of weed species after post-emergence application, SETFA (100=total damage to plant; 0=no damage to plant)): 40%; pest or weed control at 500 g/ha ([6]; Application Rate 500 g/Ha, Method A, read-out: Control of weed species after post-emergence application, AMAPA (100=total damage to plant; 0=no damage to plant)): 20%
O=C(O)c1ccnc(-c2cc[n+](CCCS(=O)(=O)[O-])nc2)n1 [Compound A146]	–	–	–	–	–	–	–	–	–	Control of weed species after post-emergence application, IPOHE [1, 16]: 30; Control of weed species after post-emergence application, EPHHL [2, 16]: 50; Control of weed species after post-emergence application, ELEIN (Eleusine indica (ELEIN); [16]): 80; Control of weed species after post-emergence application, ECHCG [3, 16]: 90; Control of weed species after post-emergence application, DIGSA [4, 16]: 80; Control of weed species after post-emergence application, CHEAL [5, 16]: 40; Control of weed species after post-emergence application, LOLPE (Lolium perenne (LOLPE); [16]): 50; Control of weed species after post-emergence application, SETFA (Setaria faberi (SETFA); [16]): 100; Control of weed species after post-emergence application, AMAPA [6, 16]: 90
Cc1c[n+](CCS(=O)(=O)[O-])ncc1-c1ncccn1 [Compound A87]	40	50	60	70	70	30	70	70	50	–

Reference: US20220125051A1, “PRE-HARVEST DESICCATION METHOD” (SYNGENTA CROP PROTECTION AG, priority 2019, published 2022)
